# Data from EP1435941B1 (ARIZONA BOARD OF REGENTS on behalf of THE UNIVERSITY OF …, priority 2001, dated 2003).
# Where two headings read alike, the source gives them in different places.
# Experiments:
# C57BL6 mice = assay: Toxicity in mice, intraperitoneal daily for 4 days (MTD, differential blood counts, serum chemistry); type: in vivo; details: for Maximum tolerated dose: Ip qD x 4, MTD=>10% body weight loss, C57BL6 mice; for Liver toxicity relative to wortmannie: mean percent increase in serum ALT and AST at the MTD or highest dose tested; for Liver toxicity relative to wortmannie / Lymphocyte toxicity relative to wortmannin: wortmannin as 1.0; for Lymphocyte toxicity relative to wortmannin: percent decrease in lymphocyte counts at the MTD or highest dose tested
# From the text: (§1) Highlighted are the compounds being made for antitumor testing.
# [1] = biological target: phesphatidylinositol-3-kinase; assay: PI-3 kinase enzyme inhibition; type: biochemical; details: read-out: P1-3 kinase Inhibition IC50
# From the text: as §1
# mTOR = mTOR enzyme inhibition; type: biochemical; details: dose to cause 50% inhibition
# From the text: as §1
# NCl cell panel [2] = assay: Cytotoxicity, MTT assay; details: read-out: cytotoxieity NCl cell panel IC50
# NCl cell panel [3] = details: nci cell panel, 48 h
# [4] = 2 day MTT assay, mean of 60 cell lines
SMILES,Maximum tolerated dose (C57BL6 mice),Liver toxicity relative to wortmannie (C57BL6 mice),Lymphocyte toxicity relative to wortmannin (C57BL6 mice),IC50 ([1]; dose to cause 50% inhibition),IC50 (mTOR),IC50 (NCl cell panel [2]; [4]),IC50 (NCl cell panel [3]),IC50 [1],"IC50 (NCl cell panel [2]; Homo sapiens, 60 cell, 48 h)"
COC[C@H]1OC(=O)/C(=C/NC(C)C(=O)O)C2=C(O)C(=O)C3=C([C@H](OC(C)=O)C[C@]4(C)C(=O)CC[C@@H]34)[C@]21C (stereo partly drawn) [DJM2-177],6 mg/kg,0.2,2.0,0.3 µM,1.5 µM,10.2 µM,,,
COC[C@H]1OC(=O)/C(=C/SCc2ccccc2)C2=C(O)C(=O)C3=C([C@H](OC(C)=O)C[C@]4(C)C(=O)CC[C@@H]34)[C@]21C [DJM2-170],9 mg/kg,1.7,1.1,1 µM,> 3 µM,7.1 µM,,,
"COC[C@H]1OC(=O)/C(=C/N2CCCC2)C2=C(O)C(=O)C3=C([C@H](OC(C)=O)C[C@]4(C)C(=O)CC[C@@H]34)[C@]21C [DJM2-167, Acetic acid 6-hydroxy-1α-methoxymethyl-10β,13β-dimethyl-3,7,17-trioxo-4-pyrrolidin-1-yl-methylene-1,3,4,7,10,11β,12,13,14α,15,16,17-dodecahydro-2-oxa-cyclopenta[a]phenanthren-11-yl]",,,,1.1 µM,,,0.5 µM,,
"COC[C@H]1OC(=O)c2coc3c2[C@@]1(C)C1=C(C3=O)[C@@H]2CCC(=O)[C@@]2(C)C[C@H]1OC(C)=O [wortmannin, reference compound]",,,,,,,,0.3 µM,8.9 µM
"COC[C@H]1OC(=O)C(=CN(C)Cc2ccccc2)C2=C(O)C(=O)C3=C([C@H](OC(C)=O)C[C@]4(C)C(=O)CC[C@@H]34)[C@]21C [DJM2-181, Acetic acid 4-[(benzylmethylamino)methylene]-6-hydroxy-1α-methoxymethyl-10β,13β-dimethyl-3,7,17-trioxo-1,3,4,7,10,11β,12,13, 14α,15,16,17-dodecahydro-2-oxa-cyclopenca[a]phenanthren-11-yl ester]",> 18 mg/kg,,,0.1 µM,> 3 µM,,0.7 µM,,
COC[C@H]1OC(=O)/C(=C/NCC(N)=O)C2=C(O)C(=O)C3=C([C@H](OC(C)=O)C[C@]4(C)C(=O)CC[C@@H]34)[C@]21C [DJM2-190],,,0.6,10 µM,> 3 µM,33 µM,,,
